Among the data in the SangsterLogP compilation are logP and logD values, retold here.

The structures appear in SMILES notation.

Compound `N#CCC#N` showed a logP of -0.5. `CCOc1cccc2cccnc12`: for the setting “pH 7.4”, the pH-dependent lipophilicity (logD) amounted to 2.25. The compound `COc1ccc(CC#N)cc1OC` returned a lipophilicity (logP) of 1.15. For `CC(C)(C)n1ccnc1C=NO`, the logP turned out to be 0.85. Same read-out and setting: the figure for `CCCCCCCCn1cc(C)c(=O)[nH]c1=O` is 3.04. `N#CCc1ccc([N+](=O)[O-])cc1`: the logP amounted to 1.37. On the same count and under the same terms, the figure for `CNC(=O)CNC(=O)CCc1ccc(S(=O)(=O)N(C)C)cc1` is -0.35; for `C1COC1` it is -0.14; for `Cc1ccnc(=O)[nH]1` it is -1.45. Same read-out and setting: for `CNC=O` the value was -0.97.

`CCCCCCOc1ccc(S(N)(=O)=O)cc1` registered a logD (pH 2.1) of 2.93.

With `O=C(O)Cn1ccnc1[N+](=O)[O-]`, the logP is -0.34. Still for that read-out and setting: the figure for `COC1=C(N2CC2)C(=O)C(OC)=C(N2CC2)C1=O` is 0.17. In the case of `N#CCc1cccc(Oc2ccccc2)c1`, the logP was found to be 3.03. On the same count and under the same terms, for `CSC(=S)Nc1ccc(Cl)c(Cl)c1` the value was 4.23; for `C#CCN(CC#C)CC#C`, 1.27; for `O=C1CC(c2ccc(C(F)(F)F)cc2)Cc2c1c(=O)c1cc(Cl)ccc1n2O` (configuration not stated), 3.46. Still for that read-out and setting: the figure for `CC(C)(C)NC(=O)[C@H]1CC[C@H]2[C@@H]3CC[C@H]4NC(=O)C=C[C@]4(C)[C@H]3CC[C@]12C` is 3.03; for `NC(=O)Nc1cccc2cccnc12` it is 1.62; for `Nc1ccn(C2CC(CO)C(O)C2O)c(=O)n1` (configuration not stated) it is -2.41.

With `CN(C)c1ccc2c(c1)C(=O)N(O)C2=O`, the logP was 1.27.

As to `CC(C)(C)Br`, the logP came to 1.15. Consider `C[C@@H]1CCC[C@H](C)N1`, for which, for the setting “pH 13.0”, the logD stood at 1.53. `Cn1c([N+](=O)[O-])cnc1-c1ccc(F)cc1`: for the setting “pH 7.4”, the logD was 1.83. `c1ccc(N2CCNCC2)cc1` returned a logD (pH 13.0) of 1.11.

In the case of `O=[N+]([O-])c1cc(C(F)(F)F)ccc1NN=C(C(F)(F)F)C(F)(F)F`, the logD (pH 4.0) was determined as 4.8. Compound `CCC(C)C(C)(C)C(N)=O` (configuration not stated) showed a logP of 1.81. The same measure, in the same setting: the figure for `COc1ccc(S(C)(=O)=O)cc1` is 0.76.

As to `N=C(N)c1cccc([N+](=O)[O-])c1`, the logD (pH 13.0) is 0.72. Turning to `O=C1CC(OC(=O)c2ccccc2)N1` (configuration not stated), the logP amounted to 1.37. On the same count and under the same terms, for `CCCOP(OCCC)OCCC` the value was 2.26; for `O=C1C(F)=C(N2CC2)C(=O)C(N2CC2)=C1N1CC1`, 0.14. Still for that read-out and setting: for `CC1(C)CCC(C)(C)O1` the value was 2.06.

For the setting “pH 7.4”, `CN1C(=O)CN=C(c2ccccc2)c2cc(C#N)ccc21` returned a logD of 1.8. Take `CN(C)N=Nc1ccc(CCCC(=O)O)cc1`: the logP was found to be 2.62. As for `CCCCCc1ccc(N)cc1`, the logD (pH 7.4) was 3.39. Consider `N#CC1CC1`, for which the logP amounted to 0.29.

With `CCCCCCn1cc(C)c(=O)[nH]c1=O`, the logP is 1.93.

As for `COC(=O)Nc1cccc(OC(=O)Nc2cccc(C)c2)c1`, the logD (pH 3.9) is 3.59. Where the note is “pH 7.0”, `COc1cccc2c1C(=O)c1c(O)c3c(c(O)c1C2=O)CC(O)(C(=O)CO)CC3OC1CC(O)C(O)C(C)O1` (configuration not stated) gave a log distribution coefficient (logD) of 1.75.

`CCc1cccc(CC)c1NC(=O)OC` registered a log partition coefficient (logP) of 1.99. Where the note is “pH 1.0”, `CCC(C)C#N` (configuration not stated) showed a logD of 1.1.

`CC(C)=NNc1c([N+](=O)[O-])cc(C(F)(F)F)cc1[N+](=O)[O-]`: the logD (pH 4.0) is 3.2. With `Cc1nc(C)c([N+](=O)[O-])[nH]1`, the logD (pH 7.4) was found to be 0.43. `COC(=O)C(C)(C)C` gave a logP of 1.83. In turn, `c1ccc(C23CCCN2CCO3)cc1` (configuration not stated) showed a logD (pH 7.4) of 1.04. For the compound `CC(C)NC(C)C`, the logP was 1.4. `O=C1CN=C(c2ccccc2F)c2cc(Br)ccc2N1` showed a logD (pH 7.4) of 2.98.

Turning to `CNCCO`, the logD (pH 13.0) was -0.94.

The compound `COc1ccc2[nH]c(N)nc2c1` gave a lipophilicity (logP) of 0.57. On the same count and under the same terms, the figure for `CC(=S)N(c1ccccc1)c1ccccc1` is 2.83. On the same count and under the same terms, for `CCS(=O)(=O)c1c([N+](=O)[O-])ncn1C` the value was -0.37; for `COC(=O)Nc1c(C)cccc1C`, 1.69; for `COc1cccc2ccccc12`, 3.63. Same read-out and setting: for `CS(=O)(=O)ON1C(=O)c2ccc([N+](=O)[O-])cc2C1=O` the value was 1.71. `Clc1nc(Cl)nc(Nc2ccccc2Cl)n1` showed a logP of 3. The compound `Oc1ccc(Sc2ccc(O)cc2)cc1` had a logP of 3.34. The same measure, in the same setting: for `NC(=O)Cc1cccs1` the value was 0.33; for `Cn1ccc(=O)n(C)c1=O`, -0.54; for `CC(C)(C)C(=O)c1ccccc1`, 3. `Nc1ccc(Sc2ccc(N)cc2)cc1` displayed a log distribution coefficient (logD) (pH 7.4) of 2.18. In turn, `CCCCOC(NC(=O)c1ccccc1O)C(Cl)(Cl)Cl` (configuration not stated) returned a logP of 4.45. Compound `O=C(O)c1cc2ccccc2o1` registered a logD (pH 1.0) of 2.41. For `CC(O)Cc1ccccc1` (configuration not stated), the logP came out at 1.97.

The compound `O=C1C=C(Br)C(=O)c2ccccc21` had a logP of 2.44.

`Cc1ccc2[nH]c(N)nc2c1` registered a logP of 1.11. The same measure, in the same setting: for `O=C(N/N=C/c1ccc[nH]1)Nc1ccccc1` the value was 2.96; for `COC(=O)c1cc(S(N)(=O)=O)ccc1SCCCO`, 0.78; for `CCn1cnc2c(NC(C)=O)ncnc21`, -0.41. On to `CCCc1ccc([N+](=O)[O-])cc1`, for which the log distribution coefficient (logD) (pH 7.4) came to 3.45. In turn, `CCN(CC)C(=O)COC(=O)[C@@H](C)c1ccc2cc(OC)ccc2c1` gave a lipophilicity (logP) of 3.32. For the setting “pH 7.4”, `OC[C@H]1O[C@@H](n2cnc3c2NC=NC[C@H]3O)C[C@@H]1O` showed a logD of -2.09.

As for `CC(C)SC(C)C`, the logP stood at 2.84. Under “pH 7.4”, `OCc1ccc2cccnc2c1` displayed a logD of 1.29.

The compound `Cc1ncc[nH]1` gave a log partition coefficient (logP) of 0.24.

Take `O=C1C=C(N2CCCC2)C(=O)c2ccccc21`: the logP came to 2.89.

The compound `CC(C)Cc1cc([N+](=O)[O-])cc(C(C)C)c1O` showed a logP of 4.19.

`CNCCNC` returned a logD (pH 13.0) of -0.62.

`Cc1ccno1` registered a logP of 0.45.

On to `O=[N+]([O-])Nc1ccccn1`, for which the logP was -1.02. Still for that read-out and setting: for `c1ncc2c(n1)-c1cn[nH]c1-2` the value was 0.14; for `Clc1nc(-c2ccccc2)nc2ccccc12`, 4.47.

For the compound `CC1(CO)COC(Cn2cncn2)(c2ccc(Cl)cc2Cl)OC1` (configuration not stated), under “pH 7.0”, the logD came out at 2.1. `Nc1ccccc1SSc1ccccc1N` came in with a logP of 3.05. For the compound `c1ccc(C23CCN(CC2)CC3)cc1`, the logD (pH 13.0) was found to be 2.54. `COc1cc(C)c2c(c1OC)C1CCC(NCc3ccccc3)C(=O)CC1C(NC(C)=O)CC2` (configuration not stated) had a logP of 3.58. Still for that read-out and setting: for `O=[N+]([O-])c1cccc(SSc2cccc([N+](=O)[O-])c2)c1` the value was 4.06. The same measure, in the same setting: the figure for `O=C(CCn1cnc([N+](=O)[O-])n1)NCCO` is -1.32. The compound `O=[N+]([O-])c1cn(Cc2ccccc2)cn1` registered a logD (pH 7.4) of 1.36. `CCOC(=O)Nc1cccc(OC(=O)Nc2ccccc2)c1` displayed a logP of 3.39.

In turn, `CC(C)C(C)OCc1cn(C)c(C=NO)n1` (configuration not stated) returned a logP of 2.53. Still for that read-out and setting: for `Nc1ccc(S)cc1` the value was 1.31. Compound `Nc1nc(=O)n([C@H]2CC[C@@H](CO)O2)cc1Br` returned a logD (pH 7.0) of -0.48.

Regarding `Nc1cc(Cl)c(Cl)cc1N`, the logP was determined as 2. Still for that read-out and setting: the figure for `O=Nc1ccc(NO)cc1` is 1.49; for `O=C1C=C(N2CCCC2)C(=O)C=C1N1CCCC1` it is 1.97. Still for that read-out and setting: the figure for `C=CCCC=C` is 2.87.
